Measurements as given in patent US11485735B2, “Selective CDK4/6 inhibitor and preparation thereof” (Wuxi Shuangliang Biotechnology Co., Ltd., priority 2019, dated 2022).
Where a name gives a salt, the structure may show the parent alone.

Assays:
CDK4/CyclinD3 = target: T1, CDK4/CyclinD3 (Homo sapiens, UniProt P11802); assay: In-vitro kinase inhibitory activity, CDK4/CyclinD3 (Caliper EZ Reader II mobility shift); format: biochemical; conditions: CDK4/CyclinD3 20 nM, ATP 2 mM, Peptide 1 μM, 27° C., 180 min; read-out: IC50 (half maximal inhibitory concentration, nM) CDK4
T1 construct: purchased Wuxi Biortus Biosciences Co. Ltd
T1 sequence (P11802 whole entry, species assumed): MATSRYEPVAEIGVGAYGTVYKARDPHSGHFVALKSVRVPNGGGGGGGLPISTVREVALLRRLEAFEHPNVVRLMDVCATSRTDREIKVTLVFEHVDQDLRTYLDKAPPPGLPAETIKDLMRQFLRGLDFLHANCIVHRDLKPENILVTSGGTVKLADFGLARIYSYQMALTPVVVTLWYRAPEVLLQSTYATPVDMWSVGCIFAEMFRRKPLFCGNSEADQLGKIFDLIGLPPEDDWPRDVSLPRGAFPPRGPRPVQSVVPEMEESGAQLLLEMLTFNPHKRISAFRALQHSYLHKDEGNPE
T1 sequence (P30281 whole entry partner, species assumed): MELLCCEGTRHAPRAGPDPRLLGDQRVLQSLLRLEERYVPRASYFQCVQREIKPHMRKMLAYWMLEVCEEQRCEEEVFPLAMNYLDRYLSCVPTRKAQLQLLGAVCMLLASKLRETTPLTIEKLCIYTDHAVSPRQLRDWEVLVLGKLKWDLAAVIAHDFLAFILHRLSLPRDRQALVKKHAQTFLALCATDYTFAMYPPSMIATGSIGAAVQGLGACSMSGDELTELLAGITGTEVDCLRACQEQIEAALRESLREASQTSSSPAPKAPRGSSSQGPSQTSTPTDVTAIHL
Procedure: The final volume for assay was 16 μL, and the reaction temperature was 27° C. CDK4/CyclinD3 was produced by Wuxi Biortus Biosciences Co. Ltd. The concentration of the kinase was determined by the results of the optimization experiment. The kinase was diluted with an assay buffer (50 mM Tris HCl pH 8.0, 0.01% Tween 20, 50 μg/mL BSA, and 5 mM MgCl2) to obtain a corresponding kinase solution (2.4× concentration). The compound was dissolved in dimethyl sulfoxide (DMSO) to reach a concentration of 10 mM. […] 2 μL of the test compound solution was mixed with 5 μL of the kinase solution, and the mixture was incubated for 10 min. 5 μL of the mixed solution of the polypeptide substrate and ATP was then added. The mixture was incubated at 27° C. for 180 min, and then the reaction was terminated by adding 4 μL of EDTA with a concentration of 120 mM to each sample. […] Each assay was conducted in at least two replicates.
(§1) The final concentrations of the reagents in the assay were as follows. […] The reaction mixture was analyzed on a Caliper EZ Reader II by electrophoretic separation of the fluorescent substrate and the phosphorylated product. Data were calculated by using GraphPad Prism version 6.0 and IC50 values were obtained by adjusting the non-linear regression models of the dose response curves.

CDK6/CyclinD3 = target: T2, CDK6/CyclinD3 (Homo sapiens, UniProt Q00534); assay: In-vitro kinase inhibitory activity, CDK6/CyclinD3 (Caliper EZ Reader II mobility shift); format: biochemical; conditions: CDK6/CyclinD3 20 nM, ATP 2 mM, Peptide 1 μM, 27° C., 120 min; read-out: IC50 (half maximal inhibitory concentration, nM) CDK6
T2 construct: purchased Wuxi Biortus Biosciences Co. Ltd
T2 sequence (Q00534 whole entry, species assumed): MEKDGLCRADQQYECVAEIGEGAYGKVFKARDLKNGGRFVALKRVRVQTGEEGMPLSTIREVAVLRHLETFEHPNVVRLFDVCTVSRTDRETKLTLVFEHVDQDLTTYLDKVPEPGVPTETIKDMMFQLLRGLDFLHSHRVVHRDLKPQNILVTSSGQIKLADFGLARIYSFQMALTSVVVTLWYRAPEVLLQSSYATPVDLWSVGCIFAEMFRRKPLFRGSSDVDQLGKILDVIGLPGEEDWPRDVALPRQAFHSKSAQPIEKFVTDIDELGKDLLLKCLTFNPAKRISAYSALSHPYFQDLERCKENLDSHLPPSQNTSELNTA
T2 sequence (P30281 whole entry partner, species assumed): as the sequence (P30281 whole entry partner, species assumed) above
Procedure: The final volume for assay was 16 μL, and the reaction temperature was 27° C. […] The compound was dissolved in dimethyl sulfoxide (DMSO) to reach a concentration of 10 mM. […] 2 μL of the test compound solution was mixed with 5 μL of the kinase solution, and the mixture was incubated for 10 min. 5 μL of the mixed solution of the polypeptide substrate and ATP was then added. The mixture was incubated at 27° C. for 120 min, and then the reaction was terminated by adding 4 μL of EDTA with a concentration of 120 mM to each sample. […] Each assay was conducted in at least two replicates.
as §1

CDK9 = CDK9 (Homo sapiens, UniProt P50750); assay: In-vitro kinase inhibitory activity, CDK9 (selectivity); format: biochemical; conditions: read-out: IC50 (half maximal inhibitory concentration, nM) CDK9
Sequence of CDK9 (P50750 whole entry, species assumed): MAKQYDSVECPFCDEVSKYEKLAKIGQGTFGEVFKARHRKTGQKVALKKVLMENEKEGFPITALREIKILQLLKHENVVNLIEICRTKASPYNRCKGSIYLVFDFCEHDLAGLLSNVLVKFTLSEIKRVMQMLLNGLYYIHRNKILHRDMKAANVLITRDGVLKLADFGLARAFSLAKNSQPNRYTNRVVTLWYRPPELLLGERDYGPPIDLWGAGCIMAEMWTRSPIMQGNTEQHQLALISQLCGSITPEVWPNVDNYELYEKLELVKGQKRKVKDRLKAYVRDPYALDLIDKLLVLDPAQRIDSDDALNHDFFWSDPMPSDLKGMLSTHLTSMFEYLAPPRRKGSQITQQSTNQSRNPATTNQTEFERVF
Sequence of CDK9 (O60563 whole entry partner, species assumed): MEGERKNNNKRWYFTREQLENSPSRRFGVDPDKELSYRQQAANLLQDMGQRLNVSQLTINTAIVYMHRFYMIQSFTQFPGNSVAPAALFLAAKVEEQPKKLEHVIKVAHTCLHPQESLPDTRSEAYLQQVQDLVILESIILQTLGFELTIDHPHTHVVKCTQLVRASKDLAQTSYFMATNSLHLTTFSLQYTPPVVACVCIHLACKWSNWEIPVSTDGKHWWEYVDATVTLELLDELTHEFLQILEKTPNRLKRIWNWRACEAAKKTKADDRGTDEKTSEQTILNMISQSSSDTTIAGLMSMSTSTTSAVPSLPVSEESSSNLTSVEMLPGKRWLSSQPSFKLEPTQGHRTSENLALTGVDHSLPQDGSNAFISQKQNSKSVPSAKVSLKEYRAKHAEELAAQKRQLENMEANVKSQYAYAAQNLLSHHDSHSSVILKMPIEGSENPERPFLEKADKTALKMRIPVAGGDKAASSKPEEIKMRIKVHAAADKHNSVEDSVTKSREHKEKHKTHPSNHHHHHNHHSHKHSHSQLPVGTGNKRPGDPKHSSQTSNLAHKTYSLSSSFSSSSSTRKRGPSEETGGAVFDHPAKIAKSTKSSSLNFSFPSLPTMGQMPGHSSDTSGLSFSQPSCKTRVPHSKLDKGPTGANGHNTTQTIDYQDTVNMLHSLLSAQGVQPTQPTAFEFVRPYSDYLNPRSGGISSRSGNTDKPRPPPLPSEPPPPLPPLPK

[1] = system: human colon cancer COLO205 cells; assay: Growth inhibition of tumor cells cultured in vitro, CellTiter-Glo, COLO205; format: cell-based; conditions: Homo sapiens, COLO 205, 72 h, COLO205, 72 h, CellTiter-Glo
Text: (§2) Test drugs: Compounds of the present disclosure. Tumor cell strains: human colon cancer COLO205 cells and human breast cancer MCF-7 cells.
(§3) The growth inhibitory effects on human tumor cells COLO205 and MCF-7 cultured in vitro were observed by using a CellTiter-Glo Luminescent Cell Viability Assay Kit (Promega, Cat. No. G7572). Human tumor cells COLO205 and MCF-7 were both purchased from the American Type Culture Collection.
(§4) CellTiter-Glo Luminescent Cell Viability Assay: The previous cell culture medium was discarded, and the tumor cells were rinsed twice with PBS. An appropriate amount of trypsin (VWR, Cat. No. 0458-25G) was added to digest the tumor cells until most of the cells turned round and were detached from the wall. The trypsin digestion was terminated by adding an RPMI-1640 medium (COLO205; Gibco, Cat. No. A10491-01) containing 10% fetal bovine serum (Hyclone, Cat. No. SV30160.03) and MEM medium (MCF-7; Gibco, Cat. No. 10370-021) containing 10% fetal bovine serum and 0.01 mg/mL insulin, and the cells were gently pipetted with a pipette to completely suspend the tumor cells. After cell counting, a tumor cell suspension was prepared using a complete culture medium and the final concentration was 6.7×10^4 cells/mL. 90 μL of the tumor cell suspension was seeded in each well of a 96-well culture plate (6000 cells/well). The plate was then placed in an incubator with 5% CO2 at 37° C. and incubated for 24 h. A test drug was added by using an Agilent Bravo Automated Liquid Handling Platform, and 10 μL of the sample was added in each well. The assay was conducted in triplicate for each group. A compound of the present disclosure was dissolved in DMSO (BioRoYee, Cat. No. AF0231), and then the resulting solution was diluted to 10 μM/L, 3.33 μM/L, 1.11 μM/L, 0.37 μM/L, 0.123 μM/L, 0.041 μM/L, 0.0137 μM/L, 0.0046 μM/L, and 0.0015 μM/L with the culture medium. The concentration of DMSO was lower than 0.1%, and a culture medium containing 0.1% DMSO was added to the well which was set as a vehicle control group. The 96-well plate was placed in an incubator with 5% CO2 at 37° C. and incubated for 72 h. The 96-well plate to be tested was equilibrated at room temperature for 30 min, and 100 μL of Cell Titer-Glo reagent was added to each well. The contents of each well were mixed in an orbital shaker for 2 min to induce cell lysis, and the plate was incubated at room temperature for 10 min to achieve a constant value of fluorescent intensity. Finally, the chemiluminescence intensity was detected by TECAN M1000. Data were processed with Graphpad Prism 6.0 software. The growth curve of the cells was plotted. The cell growth inhibition rate of a drug was calculated, and the half maximal inhibitory concentration (IC50) of the drug was determined.

[2] = system: human breast cancer MCF-7 cells; assay: Growth inhibition of tumor cells cultured in vitro, CellTiter-Glo, MCF-7; format: cell-based
Text: as §2, §3, §4

Structure (SMILES) | IC50 (CDK4/CyclinD3) [nM] | IC50 (CDK6/CyclinD3) [nM] | IC50 (CDK9) [nM] | IC50 [1] [nM] | IC50 ([2]; MCF-7, 72 h, CellTiter-Glo, dihydrochloride) [nM] | inhibitory effect on human breast cancer MCF-7 cells (in words) ([2]; summary of the table)
CN(C)C(=O)c1cc2cnc(Nc3ccc(N4CCN(CCN5CCC(CN6CCN(c7ccc8c(c7)CN(C7CCC(=O)NC7=O)C8=O)CC6)CC5)CC4)cn3)nc2n1C1CCCC1 (centres unmarked) [Compound 26, 7-cyclopentyl-2-((5-(4-(2-(4-((4-(2-(2,6-dioxopiperidin-3-yl)-1-oxoisoindolin-5-yl)piperazin-1-yl)methyl)piperidin-1-yl)ethyl)piperazin-1-yl)pyridin-2-yl)amino)-N,N-dimethyl-7H-pyrrolo[2,3-d]pyrimidin-6-amide trihydrochloride] | 38.4 | 55.2 | 4000 | – | – | –
COc1cc(N2CCN(CCN3CCN(c4ccc(Nc5ncc6c(C)c(C(C)=O)c(=O)n(C7CCCC7)c6n5)nc4)CC3)CC2)cc2c1C(=O)N(C1CCC(=O)NC1=O)C2 (centres unmarked) [Compound 17, 3-(5-(4-(2-(4-(6-((6-acetyl-8-cyclopentyl-5-methyl-7-oxo-7,8-dihydropyrido[2,3-d]pyrimidin-2-yl)amino)pyridin-3-yl)piperazin-1-yl)ethyl)piperazin-1-yl)-7-methoxy-1-oxoisoindolin-2-yl)piperidine-2,6-dione dihydrochloride] | 67.1 | 29.6 | > 10000 | – | – | –
CC(=O)c1c(C)c2cnc(Nc3ccc(N4CCN(CCN5CCC(CC6CCN(c7ccc8c(c7Cl)CN(C7CCC(=O)NC7=O)C8=O)CC6)CC5)CC4)cn3)nc2n(C2CCCC2)c1=O (centres unmarked) [Compound 39, 3-(5-(4-((1-(2-(4-(6-((6-acetyl-8-cyclopentyl-5-methyl-7-oxo-7,8-dihydropyrido[2,3-d]pyrimidin-2-yl)amino)pyridin-3-yl)piperazin-1-yl)ethyl)piperidin-4-yl)methyl)piperidin-1-yl)-4-chloro-1-oxoisoindolin-2-yl)piperidine-2,6-dione dihydrochloride] | 56.1 | 11.3 | 5760 | 440 | – | –
CC(=O)c1c(C)c2cnc(Nc3ccc(N4CCN(CCN5CCC(CC6CCN(c7ccc8c(c7Cl)CN([C@H]7CCC(=O)NC7=O)C8=O)CC6)CC5)CC4)cn3)nc2n(C2CCCC2)c1=O [Compound 40, (S)-3-(5-(4-((1-(2-(4-(6-((6-acetyl-8-cyclopentyl-5-methyl-7-oxo-7,8-dihydropyrido[2,3-d]pyrimidin-2-yl)amino)pyridin-3-yl)piperazin-1-yl)ethyl)piperidin-4-yl)methyl)piperidin-1-yl)-4-chloro-1-oxoisoindolin-2-yl)piperidine-2,6-dione dihydrochloride] | 55 | 23.3 | 6810 | 50.9 | – | –
CC(=O)c1c(C)c2cnc(Nc3ccc(N4CCN(CCN5CCC(CC6CCN(c7ccc8c(c7)CN([C@H]7CCC(=O)NC7=O)C8=O)CC6)CC5)CC4)cn3)nc2n(C2CCCC2)c1=O [Compound 38, (S)-3-(5-(4-((1-(2-(4-(6-((6-acetyl-8-cyclopentyl-5-methyl-7-oxo-7,8-dihydropyrido[2,3-d]pyrimidin-2-yl)amino)pyridin-3-yl)piperazin-1-yl)ethyl)piperidin-4-yl)methyl)piperidin-1-yl)-1-oxoisoindolin-2-yl)piperidine-2,6-dione dihydrochloride] | 8.88 | 6.73 | 1400 | 76.2 | – | –
CC(=O)c1c(C)c2cnc(Nc3ccc(N4CCN(CCN5CCC(CN6CCN(c7ccc8c(c7Cl)CN(C7CCC(=O)NC7=O)C8=O)CC6)CC5)CC4)cn3)nc2n(C2CCCC2)c1=O (centres unmarked) [Compound 36, 3-(5-(4-((1-(2-(4-(6-((6-acetyl-8-cyclopentyl-5-methyl-7-oxo-7,8-dihydropyrido[2,3-d]pyrimidin-2-yl)amino)pyridin-3-yl)piperazin-1-yl)ethyl)piperidin-4-yl)methyl)piperazin-1-yl)-4-chloro-1-oxoisoindolin-2-yl)piperidine-2,6-dione trihydrochloride] | 12.7 | 4.44 | 1480 | 95.9 | – | –
CC(=O)c1c(C)c2cnc(Nc3ccc(N4CCN(CCN5CCN(c6c(F)cc7c(c6F)CN(C6CCC(=O)NC6=O)C7=O)CC5)CC4)cn3)nc2n(C2CCCC2)c1=O.Cl.Cl (centres unmarked) [Compound 23, 3-(5-(4-(2-(4-(6-((6-acetyl-8-cyclopentyl-5-methyl-7-oxo-7,8-dihydropyrido[2,3-d]pyrimidin-2-yl)amino)pyridin-3-yl)piperazin-1-yl)ethyl)piperazin-1-yl)-4,6-difluoro-1-oxoisoindolin-2-yl) piperidine-2,6-dione dihydrochloride] | 48.8 | 22.1 | 4580 | – | 13.5 | relatively good inhibitory effects
CC(=O)c1c(C)c2cnc(Nc3ccc(N4CCC(CCN5CCC(CC6CCN(c7ccc8c(c7)CN(C7CCC(=O)NC7=O)C8=O)CC6)CC5)CC4)cn3)nc2n(C2CCCC2)c1=O (centres unmarked) [Compound 42, 3-(5-(4-((1-(2-(1-(6-((6-acetyl-8-cyclopentyl-5-methyl-7-oxo-7,8-dihydropyrido[2,3-d]pyrimidin-2-yl)amino)pyridin-3-yl)piperidin-4-yl)ethyl)piperidin-4-yl)methyl)piperidin-1-yl)-1-oxoisoindolin-2-yl)piperidine-2,6-dione hydrochloride] | 33.3 | 19.2 | > 10000 | 194 | – | –
CC(=O)c1c(C)c2cnc(Nc3ccc(N4CCN(CCN5CCN(c6ccc7c(c6Cl)CN(C6CCC(=O)NC6=O)C7=O)CC5)CC4)cn3)nc2n(C2CCCC2)c1=O (centres unmarked) [Compound 21, 3-(5-(4-(2-(4-(6-((6-acetyl-8-cyclopentyl-5-methyl-7-oxo-7,8-dihydropyrido[2,3-d]pyrimidin-2-yl)amino)pyridin-3-yl)piperazin-1-yl)ethyl)piperazin-1-yl)-4-chloro-1-oxoisoindolin-2-yl)piperidine-2,6-dione dihydrochloride] | 53.2 | 37.1 | 3950 | – | – | –
CC(=O)c1c(C)c2cnc(Nc3ccc(N4CCN(CCC5CCN(c6ccc7c(c6)CN(C6CCC(=O)NC6=O)C7=O)CC5)CC4)cn3)nc2n(C2CCCC2)c1=O (centres unmarked) [Compound 13, 3-(5-(4-(2-(4-(6-((6-acetyl-8-cyclopentyl-5-methyl-7-oxo-7,8-dihydropyrido[2,3-d]pyrimidin-2-yl)amino)pyridin-3-yl)piperazin-1-yl)ethyl)piperidin-1-yl)-1-oxoisoindolin-2-yl)piperidine-2,6-dione] | 71.1 | 26.6 | > 10000 | 59.4 | – | –
